Patent US20230250129A1, “NEUROACTIVE STEROIDS AND COMPOSITIONS THEREOF” (Sage Therapeutics, Inc., priority 2020, published 2023)

What follows are molecules tested against [35S]-TBPS binding, rat brain cortical membranes (GABAA receptor) (assay: Steroid inhibition of [35S]-TBPS binding). Conditions: 3 nM [35S]-TBPS, in the presence of 5 mM GABA, 90 min at room temp.
Method: Steroid Inhibition of TBPS Binding
[^35S]-t-Butylbicyclophosphorothionate (TBPS) binding assays using rat brain cortical membranes in the presence of 5 mM GABA has been described (Gee et al, J. Pharmacol. Exp. Ther. 1987, 241, 346-353; Hawkinson et al, Mol. Pharmacol. 1994, 46, 977-985; Lewin, A. H et al., Mol. Pharmacol. 1989, 35, 189-194).
Briefly, cortices are rapidly removed following decapitation of carbon dioxide-anesthetized Sprague-Dawley rats (200-250 g). The cortices are homogenized in 10 volumes of ice-cold 0.32 M sucrose using a glass/teflon homogenizer and centrifuged at 1500×g for 10 min at 4° C. The resultant supernatants are centrifuged at 10,000×g for 20 min at 4° C. to obtain the P2 pellets. The P2 pellets are resuspended in 200 mM NaCl/50 mM Na—K phosphate pH 7.4 buffer and centrifuged at 10,000×g for 10 min at 4° C. This washing procedure is repeated twice and the pellets are resuspended in 10 volumes of buffer. Aliquots ([…]) of the membrane suspensions are incubated with 3 nM [^35S]-TBPS and […] aliquots of test drug dissolved in dimethyl sulfoxide (DMSO) (final 0.5%) in the presence of 5 mM GABA. The incubation is brought to a final volume of 1.0 mL with buffer. Nonspecific binding is determined in the presence of […] and ranged from 15 to 25%. Following a 90 min incubation at room temp, the assays are terminated by filtration through glass fiber filters (Schleicher and Schuell No. 32) using a cell harvester (Brandel) and rinsed three times with ice-cold buffer. Filter bound radioactivity is measured by liquid scintillation spectrometry. Non-linear curve fitting of the overall data for each drug averaged for each concentration is done using Prism (GraphPad). […] The concentration of test compound producing 50% inhibition (IC50) of specific binding and the maximal extent of inhibition (Imax) are determined for the individual experiments with the same model used for the overall data and then the means±SEM.s of the individual experiments are calculated.
Various compounds are or can be screened to determine their potential as modulators of [^35S]-TBPS binding in vitro. These assays are or can be performed in accordance with the above

| Compound | IC50 [nM] |
| --- | --- |
| CCC[C@@]1(O)CC[C@H]2[C@H](CC[C@@H]3[C@@H]2CC[C@]2(C)[C@@H](C(=O)Nc4ncc(C#N)cn4)CC[C@@H]32)C1 [Compound 90, (3R,5R,8R,9R,10S,13S,14S,17S)—N-(5-cyanopyrimidin-2-yl)-3-hydroxy-13-methyl-3-propylhexadecahydro-1H-cyclopenta[a]phenanthrene-17-carboxamide] | < 100 |
| COC[C@@]1(O)CC[C@H]2[C@H](CC[C@@H]3[C@@H]2CC[C@]2(C)[C@@H](C(=O)Nc4ccnc(C#N)n4)CC[C@@H]32)C1 [Compound 91, (3R,5R,8R,9R,10S,13S,14S,17S)—N-(2-cyanopyrimidin-4-yl)-3-hydroxy-3-(methoxymethyl)-13-methylhexadecahydro-1H-cyclopenta[a]phenanthrene-17-carboxamide] | < 100 |
| COC[C@@]1(O)CC[C@H]2[C@H](CC[C@@H]3[C@@H]2CC[C@]2(C)[C@@H](C(=O)Nc4nccc(C#N)n4)CC[C@@H]32)C1 [Compound 92, (3R,5R,8R,9R,10S,13S,14S,17S)—N-(4-cyanopyrimidin-2-yl)-3-hydroxy-3-(methoxymethyl)-13-methylhexadecahydro-1H-cyclopenta[a]phenanthrene-17-carboxamide] | 100 to 1000 |
| CCC[C@@]1(O)CC[C@H]2[C@H](CC[C@@H]3[C@@H]2CC[C@]2(C)[C@@H](C(=O)Nc4nccc(C#N)n4)CC[C@@H]32)C1 [Compound 93, (3R,5R,8R,9R,10S,13S,14S,17S)—N-(4-cyanopyrimidin-2-yl)-3-hydroxy-13-methyl-3-propylhexadecahydro-1H-cyclopenta[a]phenanthrene-17-carboxamide] | < 100 |
| COC[C@@]1(O)CC[C@H]2[C@H](CC[C@@H]3[C@@H]2CC[C@]2(C)[C@@H](C(=O)Nc4cc(C#N)ncn4)CC[C@@H]32)C1 [Compound 94, (3R,5R,8R,9R,10S,13S,14S,17S)—N-(6-cyanopyrimidin-4-yl)-3-hydroxy-3-(methoxymethyl)-13-methylhexadecahydro-1H-cyclopenta[a]phenanthrene-17-carboxamide] | < 100 |
| COC[C@@]1(O)CC[C@H]2[C@H](CC[C@@H]3[C@@H]2CC[C@]2(C)[C@@H](C(=O)Nc4cncc(C#N)n4)CC[C@@H]32)C1 [Compound 95, (3R,5R,8R,9R,10S,13S,14S,17S)—N-(6-cyanopyrazin-2-yl)-3-hydroxy-3-(methoxymethyl)-13-methylhexadecahydro-1H-cyclopenta[a]phenanthrene-17-carboxamide] | < 100 |
| C[C@@]1(O)CC[C@H]2[C@H](CC[C@@H]3[C@@H]2CC[C@]2(C)[C@@H](C(=O)Nc4ccccc4)CCC[C@@H]32)C1 [Compound 98, (1S,4aS,4bR,6aR,8R,10aS,10bR,12aS)-8-hydroxy-8,12a-dimethyl-N-phenyloctadecahydrochrysene-1-carboxamide] | < 100 |
| CC[C@]12CC[C@@](C)(O)C[C@H]1CC[C@H]1[C@@H]3CCC[C@H](C(=O)Nc4ccccc4)[C@@]3(C)CC[C@@H]12 [Compound 99, (1S,4aS,4bS,6aR,8R,10aS,10bS,12aS)-10a-ethyl-8-hydroxy-8,12a-dimethyl-N-phenyloctadecahydrochrysene-1-carboxamide] | < 100 |
| CCOC[C@@]1(O)CC[C@@]2(CC)[C@H](CC[C@H]3[C@@H]4CCC[C@H](C(=O)Nc5cc(C)n(C)n5)[C@@]4(C)CC[C@@H]32)C1 [Compound 100, (4aS,4bS,6aR,8R,10aS,10bS,12aS)—N-(1,5-dimethyl-1H-pyrazol-3-yl)-8-(ethoxymethyl)-0a-ethyl-8-hydroxy-12a-methyloctadecahydrochrysene-1-carboxamide] | < 100 |
| CCOC[C@@]1(O)CC[C@@]2(CC)[C@H](CC[C@H]3[C@@H]4CCC[C@H](C(=O)Nc5cc(C)nn5C)[C@@]4(C)CC[C@@H]32)C1 [Compound 101, (1S,4aS,4bS,6aR,8R,10aS,10bS,12aS)—N-(1,3-dimethyl-1H-pyrazol-5-yl)-8-(ethoxymethyl)-10a-ethyl-8-hydroxy-12a-methyloctadecahydrochrysene-1-carboxamide] | < 100 |
